For data set [1], the target named is T1, human amylin receptor (amylin 3(a) receptor: human calcitonin receptor + RAMP-3) (Homo sapiens, UniProt O60896+P30988).
T1 construct: expressed in transfected cells; host or cells: BHK570
T1 sequence (P30988 25-474): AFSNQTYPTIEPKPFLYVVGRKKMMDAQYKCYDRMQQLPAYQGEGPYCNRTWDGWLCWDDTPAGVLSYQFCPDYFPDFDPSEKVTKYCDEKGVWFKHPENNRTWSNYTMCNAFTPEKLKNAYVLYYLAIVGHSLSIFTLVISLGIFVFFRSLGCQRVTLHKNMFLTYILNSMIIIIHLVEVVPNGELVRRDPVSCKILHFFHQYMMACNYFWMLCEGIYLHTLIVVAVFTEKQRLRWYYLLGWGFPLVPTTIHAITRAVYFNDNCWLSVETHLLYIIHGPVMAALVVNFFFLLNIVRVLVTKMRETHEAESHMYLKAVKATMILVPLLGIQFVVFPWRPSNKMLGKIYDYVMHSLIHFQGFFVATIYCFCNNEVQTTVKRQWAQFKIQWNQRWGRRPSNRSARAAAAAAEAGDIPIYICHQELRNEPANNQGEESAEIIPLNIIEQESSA
T1 sequence (O60896 24-148 partner): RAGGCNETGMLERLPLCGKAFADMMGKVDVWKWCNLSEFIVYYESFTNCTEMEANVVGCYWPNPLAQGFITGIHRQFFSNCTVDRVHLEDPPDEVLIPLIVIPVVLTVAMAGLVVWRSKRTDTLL
The experiment in a line: Assay (II)a functional CRE-luciferase assay, human amylin receptor. The format is cell-based. To be noted: Table 2; BHK amylin 3(a)-receptor/CRE-luc cells.

For data set [2], the target named is T2, human calcitonin receptor (Homo sapiens, UniProt P30988).
T2 construct: expressed in transfected cells; host or cells: BHK570
T2 sequence (P30988 25-474): T1 sequence (P30988 25-474)
The experiment in a line: Assay (II)a functional CRE-luciferase assay, human calcitonin receptor. To be noted: Table 7; human calcitonin (CTa) receptor. Format: cell-based.

Data set [3] in a line: Assay (IV) determination of solubility. Format: physicochemical. An outline of the steps: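 Stock ~500 nmol/ml in water; 1:1 with 100 mM buffer, pH 3.0–8.0 (glycylglycine ≤5.0, bistrispropane ≥6.0); 18 h RT; spin; HPLC quantitation of soluble polypeptide.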
The mark [4] stands for this setting: bistrispropane buffer, pH 6, pH 6.0, read-out: Solubility pH 6.0.
[5] abbreviates: bistrispropane buffer, pH 6.5, pH 6.5, read-out: Solubility pH 6.5.
Setting [6] is: bistrispropane buffer, pH 7, pH 7.0, 18 hours at room temperature, Table 3, read-out: Solubility pH 7.0.
Where [7] appears, read: bistrispropane buffer, pH 7, pH 7.0, read-out: Solubility pH 7.0.
[8] abbreviates: bistrispropane buffer, pH 7.5, pH 7.5, read-out: Solubility pH 7.5.
Where [9] appears, read: bistrispropane buffer, pH 8, pH 8.0, read-out: Solubility pH 8.0.
The mark [10] stands for this setting: glycylglycine buffer, pH 3, pH 3.0, read-out: Solubility pH 3.0.
Where [11] appears, read: glycylglycine buffer, pH 4, pH 4.0, 18 hours at room temperature, Table 2, read-out: Solubility pH 4.0.
Setting [12] is: glycylglycine buffer, pH 4, pH 4.0, read-out: Solubility pH 4.0.
Setting [13] is: glycylglycine buffer, pH 5, pH 5.0, read-out: Solubility pH 5.0.

pEC50: −log10 of the molar value. In brackets after ≈: the same amount, converted by molar mass. Read-outs that look alike come from different tables or passages of the source. Starred links: 1 amine or outer side, 2 acyl side, 3 side chain; linkers in the order of their positions; H or OH if unused. Positions of bridges follow the written chain, without caps; N, C: chain ends. Residues, ends and D or L forms follow the SMILES beside them. *: point of attachment. C20 diacid = O=C(O)CCCCCCCCCCCCCCCCCCC(=O)*; C18 diacid = O=C(O)CCCCCCCCCCCCCCCCC(=O)*; γGlu = O=C(O)[C@H](CCC(=O)[*:2])N[*:1]

What is called pEC50 is the EC50 on a negative log10 scale, so that one unit is a factor of ten. In general, solubility refers to the dissolved amount per volume that the medium holds.

On to `CC[C@H](C)[C@H](NC(=O)[C@@H]1CCCN1C(=O)CNC(=O)[C@H](Cc1ccccc1)NC(=O)[C@H](CC(N)=O)NC(=O)[C@H](CC(N)=O)NC(=O)[C@H](CO)NC(=O)[C@H](CO)NC(=O)[C@H](Cc1c[nH]cn1)NC(=O)[C@H](Cc1c[nH]cn1)NC(=O)[C@H](CC(C)C)NC(=O)[C@H](Cc1ccccc1)NC(=O)[C@H](CCC(=O)O)NC(=O)[C@H](C)NC(=O)[C@H](CC(C)C)NC(=O)[C@H](CCCNC(=N)N)NC(=O)[C@H](CCC(N)=O)NC(=O)[C@@H](NC(=O)[C@H](C)NC(=O)[C@@H]1CSSC[C@H](NC(=O)[C@H](CCCCN)NC(=O)[C@H](CCC(=O)O)NC(=O)CC[C@H](NC(=O)CCCCCCCCCCCCCCCCC(=O)O)C(=O)O)C(=O)N[C@@H](CC(N)=O)C(=O)N[C@@H]([C@@H](C)O)C(=O)N[C@@H](C)C(=O)N[C@@H]([C@@H](C)O)C(=O)N1)[C@@H](C)O)C(=O)N[C@@H](CC(C)C)C(=O)N1CCC[C@H]1C(=O)N1CCC[C@H]1C(=O)N[C@H](C(=O)N[C@@H](CC(N)=O)C(=O)N[C@H](C(=O)NCC(=O)N[C@@H](CO)C(=O)N[C@@H](CC(N)=O)C(=O)N[C@H](C(=O)N[C@@H](Cc1ccc(O)cc1)C(N)=O)[C@@H](C)O)C(C)C)[C@@H](C)O` [Example 42, N-alpha-[(S)-4-Carboxy-4-(17-carboxyheptadecanoylamino)butyryl]-Glu-[Glu14,His17]-pramlintide] ({C18 diacid-γGlu}-EKCNTATCATQRLAEFLHHSSNNFGPILPPTNVGSNTY-NH2; disulfide 3-8 (inferred)), for which the figures for the pEC50 in data set [1] and in data set [2] were 10.13 and 9.56, respectively. Also, the solubility at 18 h in data set [3] (setting [4]), in data set [3] (setting [5]), in data set [3] (setting [6]), in data set [3] (setting [7]), in data set [3] (setting [8]) and in data set [3] (setting [9]) was > 200 µM each time. For the same compound, the solubility at 18 h in data set [3] (setting [10]), in data set [3] (setting [11]), in data set [3] (setting [12]) and in data set [3] (setting [13]) was > 200 µM each time.

Regarding `CC[C@H](C)[C@H](NC(=O)[C@@H]1CCCN1C(=O)CNC(=O)[C@H](Cc1ccccc1)NC(=O)[C@H](CC(N)=O)NC(=O)[C@H](CC(N)=O)NC(=O)[C@H](CO)NC(=O)[C@H](CO)NC(=O)[C@H](Cc1c[nH]cn1)NC(=O)[C@H](Cc1c[nH]cn1)NC(=O)[C@H](CC(C)C)NC(=O)[C@H](Cc1ccccc1)NC(=O)[C@H](CCC(=O)O)NC(=O)[C@H](C)NC(=O)[C@H](CC(C)C)NC(=O)[C@H](CCCNC(=N)N)NC(=O)[C@H](CCC(N)=O)NC(=O)[C@@H](NC(=O)[C@H](C)NC(=O)[C@@H]1CSSC[C@H](NC(=O)[C@H](Cc2c[nH]cn2)NC(=O)[C@H](Cc2c[nH]cn2)NC(=O)[C@H](Cc2c[nH]cn2)NC(=O)CC[C@H](NC(=O)CCCCCCCCCCCCCCCCCCC(=O)O)C(=O)O)C(=O)N[C@@H](CC(N)=O)C(=O)N[C@@H]([C@@H](C)O)C(=O)N[C@@H](C)C(=O)N[C@@H]([C@@H](C)O)C(=O)N1)[C@@H](C)O)C(=O)N[C@@H](CC(C)C)C(=O)N1CCC[C@H]1C(=O)N1CCC[C@H]1C(=O)N[C@H](C(=O)N[C@@H](CC(N)=O)C(=O)N[C@H](C(=O)NCC(=O)N[C@@H](CO)C(=O)N[C@@H](CCCNC(=N)N)C(=O)N[C@H](C(=O)N[C@@H](Cc1ccc(O)cc1)C(N)=O)[C@@H](C)O)C(C)C)[C@@H](C)O` [Example 21, N-alpha-[(S)-4-Carboxy-4-(19-carboxynonadecanoylamino)butyryl]-His-His-[His1,Glu14,His17,Arg35]-pramlintide] ({C20 diacid-γGlu}-HHHCNTATCATQRLAEFLHHSSNNFGPILPPTNVGSRTY-NH2; disulfide 4-9 (inferred)), the pEC50 in data set [1] is 9.72; in data set [2], 9.37. Further, the solubility at 18 h was > 200 µM in data set [3] (setting [4]); 87 µM (≈ 416 µg/mL) in data set [3] (setting [5]); > 200 µM in data set [3] (setting [10]); > 200 µM in data set [3] (setting [11]); > 200 µM in data set [3] (setting [12]); > 200 µM in data set [3] (setting [13]). Besides, the solubility at 18 h in data set [3] (pH 8.0, read-out: Solubility pH 8.0) is 1 µM (≈ 4.78 µg/mL).

Regarding `CC[C@H](C)[C@H](NC(=O)[C@@H]1CCCN1C(=O)CNC(=O)[C@H](Cc1ccccc1)NC(=O)[C@H](CC(N)=O)NC(=O)[C@H](CC(N)=O)NC(=O)[C@H](CO)NC(=O)[C@H](CO)NC(=O)[C@H](Cc1c[nH]cn1)NC(=O)[C@H](CCCNC(=N)N)NC(=O)[C@H](CC(C)C)NC(=O)[C@H](Cc1ccccc1)NC(=O)[C@H](CCC(=O)O)NC(=O)[C@H](C)NC(=O)[C@H](CC(C)C)NC(=O)[C@H](CCCNC(=N)N)NC(=O)[C@H](CCC(N)=O)NC(=O)[C@@H](NC(=O)[C@H](C)NC(=O)[C@@H]1CSSC[C@H](NC(=O)[C@H](CCCCN)NC(=O)CC[C@H](NC(=O)CCCCCCCCCCCCCCCCC(=O)O)C(=O)O)C(=O)N[C@@H](CC(N)=O)C(=O)N[C@@H]([C@@H](C)O)C(=O)N[C@@H](C)C(=O)N[C@@H]([C@@H](C)O)C(=O)N1)[C@@H](C)O)C(=O)N[C@@H](CC(C)C)C(=O)N1CCC[C@H]1C(=O)N1CCC[C@H]1C(=O)N[C@H](C(=O)N[C@@H](CC(N)=O)C(=O)N[C@H](C(=O)NCC(=O)N[C@@H](CO)C(=O)N[C@@H](Cc1c[nH]cn1)C(=O)N[C@H](C(=O)N[C@@H](Cc1ccc(O)cc1)C(N)=O)[C@@H](C)O)C(C)C)[C@@H](C)O` [Example 61, N-alpha-[(S)-4-Carboxy-4-(17-carboxyheptadecanoylamino)butyryl]-[Glu14,Arg17,His35]-pramlintide] ({C18 diacid-γGlu}-KCNTATCATQRLAEFLRHSSNNFGPILPPTNVGSHTY-NH2; disulfide 2-7 (inferred)), the pEC50 in data set [1] was 10.17; in data set [2], 9.48. Besides, the solubility at 18 h in data set [3] (setting [4]) was > 200 µM; in data set [3] (setting [5]), > 200 µM; in data set [3] (setting [7]), 81 µM (≈ 362 µg/mL); in data set [3] (setting [8]), 50 µM (≈ 224 µg/mL); in data set [3] (setting [9]) it was 48 µM (≈ 215 µg/mL); in data set [3] (setting [10]), > 200 µM. Moreover, the solubility at 18 h in data set [3] (setting [11]), in data set [3] (setting [12]) and in data set [3] (setting [13]) was > 200 µM in each case.

With `CC[C@H](C)[C@H](NC(=O)[C@@H]1CCCN1C(=O)CNC(=O)[C@H](Cc1ccccc1)NC(=O)[C@H](CC(N)=O)NC(=O)[C@H](CC(N)=O)NC(=O)[C@H](CO)NC(=O)[C@H](CO)NC(=O)[C@H](Cc1c[nH]cn1)NC(=O)[C@H](CCCNC(=N)N)NC(=O)[C@H](CC(C)C)NC(=O)[C@H](Cc1ccccc1)NC(=O)[C@H](CCC(=O)O)NC(=O)[C@H](C)NC(=O)[C@H](CC(C)C)NC(=O)[C@H](CCCNC(=N)N)NC(=O)[C@H](CCC(N)=O)NC(=O)[C@@H](NC(=O)[C@H](C)NC(=O)[C@@H]1CSSC[C@H](NC(=O)[C@H](CCCCN)NC(=O)[C@H](CCC(=O)O)NC(=O)CC[C@H](NC(=O)CCCCCCCCCCCCCCCCCCC(=O)O)C(=O)O)C(=O)N[C@@H](CC(N)=O)C(=O)N[C@@H]([C@@H](C)O)C(=O)N[C@@H](C)C(=O)N[C@@H]([C@@H](C)O)C(=O)N1)[C@@H](C)O)C(=O)N[C@@H](CC(C)C)C(=O)N1CCC[C@H]1C(=O)N1CCC[C@H]1C(=O)N[C@H](C(=O)N[C@@H](CC(N)=O)C(=O)N[C@H](C(=O)NCC(=O)N[C@@H](CO)C(=O)N[C@@H](Cc1c[nH]cn1)C(=O)N[C@H](C(=O)N[C@@H](Cc1ccc(O)cc1)C(N)=O)[C@@H](C)O)C(C)C)[C@@H](C)O` [Example 58, N-alpha-[(S)-4-Carboxy-4-(19-carboxynonadecanoylamino)butyryl]-Glu-[Glu14,Arg17,His35]-pramlintide] ({C20 diacid-γGlu}-EKCNTATCATQRLAEFLRHSSNNFGPILPPTNVGSHTY-NH2; disulfide 3-8 (inferred); C-terminus assumed), the negative logarithm of the EC50 (pEC50) in data set [1] was 9.93; in data set [2], 9.22. Besides, the solubility at 18 h in data set [3] (setting [4]) is > 200 µM; in data set [3] (setting [5]), > 200 µM; in data set [3] (setting [6]), > 200 µM; in data set [3] (bistrispropane buffer, pH 7, pH 7.0, Table 8, read-out: Solubility pH 7.0) it was > 200 µM; in data set [3] (bistrispropane buffer, pH 7, pH 7.0, Table 9, read-out: Solubility pH 7.0), > 200 µM; in data set [3] (setting [7]), > 200 µM. Also, the solubility at 18 h is > 200 µM in data set [3] (bistrispropane buffer, pH 7.5, pH 7.5, Table 9, read-out: Solubility pH 7.5); > 200 µM in data set [3] (setting [8]); > 200 µM in data set [3] (setting [9]); > 200 µM in data set [3] (setting [10]); > 200 µM in data set [3] (setting [11]); > 200 µM in data set [3] (setting [12]). The solubility at 18 h in data set [3] (setting [13]) was > 200 µM.

The values above are taken from US8722849B2, “Polypeptides” (Novo Nordisk A/S, priority 2011, dated 2014).
